ChEMBL document CHEMBL2439959, “Structural study of the location of the phenyl tail of benzene sulfonamides and the effect on human carbonic anhydrase inhibition” (Bioorg Med Chem, 2013)

Tests used:
[1] = biological target: Carbonic anhydrase 5B, mitochondrial (Homo sapiens, UniProt Q9Y2D0)
[2] = biological target: Carbonic anhydrase 5A, mitochondrial (Homo sapiens, UniProt P35218)
Carbonic anhydrase 5A, mitochondrial, sequence (P35218 whole entry): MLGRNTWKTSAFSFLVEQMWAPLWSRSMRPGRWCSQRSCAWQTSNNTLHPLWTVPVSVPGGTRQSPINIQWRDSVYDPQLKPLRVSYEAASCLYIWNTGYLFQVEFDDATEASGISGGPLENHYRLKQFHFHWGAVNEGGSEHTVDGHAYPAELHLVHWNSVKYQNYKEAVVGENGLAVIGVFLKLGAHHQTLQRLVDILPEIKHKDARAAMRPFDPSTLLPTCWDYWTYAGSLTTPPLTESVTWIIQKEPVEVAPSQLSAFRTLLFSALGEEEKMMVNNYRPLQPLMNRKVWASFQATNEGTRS

Carbonic anhydrase 5B, mitochondrial, sequence (Q9Y2D0 whole entry): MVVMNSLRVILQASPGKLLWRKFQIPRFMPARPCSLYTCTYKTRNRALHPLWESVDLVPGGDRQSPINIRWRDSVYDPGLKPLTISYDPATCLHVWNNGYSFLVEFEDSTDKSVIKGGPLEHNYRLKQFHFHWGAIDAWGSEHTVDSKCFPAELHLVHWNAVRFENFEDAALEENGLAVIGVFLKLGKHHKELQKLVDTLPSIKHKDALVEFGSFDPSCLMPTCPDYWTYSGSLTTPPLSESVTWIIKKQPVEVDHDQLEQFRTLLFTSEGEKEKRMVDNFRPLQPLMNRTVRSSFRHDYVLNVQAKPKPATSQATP

Row | Ki [1] [nM] | Ki [2] [nM] | SMILES
1 | 10 | 13 | NS(=O)(=O)c1ccc(NC(=O)Cc2ccccc2)cc1
2 | 340 | 451 | NS(=O)(=O)c1ccc(Nc2nc(Cl)nc(NCCO)n2)cc1
